Article PMC3079055 (Archives of biochemistry and biophysics, 2011)

Key:
[1] = target: C. albicans CYP51F1 F105L mutant (Candida albicans, UniProt P10613, F105L); assay: Spectral binding titration of purified CYP51F1 F105L mutant
[2] = target: C. albicans CYP51F1 D116E mutant (Candida albicans, UniProt P10613, D116E); assay: Spectral binding titration of purified CYP51F1 D116E mutant
[3] = target: C. albicans CYP51F1 Y132H mutant (Candida albicans, UniProt P10613, Y132H); assay: Spectral binding titration of purified CYP51F1 Y132H mutant
[4] = target: C. albicans CYP51F1 R467K mutant (Candida albicans, UniProt P10613, R467K); assay: Spectral binding titration of purified CYP51F1 R467K mutant
[5] = target: C. albicans CYP51F1 wild-type (Candida albicans, UniProt P10613); assay: Spectral binding titration of purified CYP51F1 wild type

SMILES | Kd [1] [nM] | Kd [2] [nM] | Kd [3] [nM] | Kd [4] [nM] | Kd [5] [nM]
CC(=O)N1CCN(c2ccc(OCC3COC(Cn4ccnc4)(c4ccc(Cl)cc4Cl)O3)cc2)CC1 (centres unmarked) [Ketoconazole, ketoconazole] | 170 ± 40 | 430 ± 80 | 540 ± 70 | 660 ± 130 | 420 ± 80
Clc1ccc(COC(Cn2ccnc2)c2ccc(Cl)cc2Cl)cc1 (centres unmarked) [Econazole, econazole] | 100 ± 30 | 140 ± 30 | 420 ± 60 | 130 ± 30 | 200 ± 40
CC(C)=CCC[C@@H](C)[C@H]1CC[C@@]2(C)C3=C(CC[C@]12C)[C@@]1(C)CC[C@H](O)C(C)(C)[C@@H]1CC3 [lanosterol, Lanosterol] | – | – | – | – | 6700
CCC(C)n1ncn(-c2ccc(N3CCN(c4ccc(OCC5COC(Cn6cncn6)(c6ccc(Cl)cc6Cl)O5)cc4)CC3)cc2)c1=O (centres unmarked) [Itraconazole, itraconazole] | 160 ± 40 | 150 ± 30 | – | 180 ± 40 | 190 ± 60
OC(Cn1cncn1)(Cn1cncn1)c1ccc(F)cc1F [Fluconazole, fluconazole] | 20 ± 10 | 30 ± 10 | 150 ± 60 | 60 ± 10 | 60 ± 10
